# According to US20100331233A1, “CRYSTAL OF XPA AND ERCC1 COMPLEX AND USES THEREOF” (priority 2007, published 2010):
# “Also recorded” adds a separate entry of the source. No end group written: not given here.
# Target: T1, central domain of ERCC1 (ERCC196-214) (Homo sapiens, UniProt P07992)
# T1 construct: His6 (N); made in house; host or cells: E. coli BL21(DE3)
# T1 sequence (P07992 96-214): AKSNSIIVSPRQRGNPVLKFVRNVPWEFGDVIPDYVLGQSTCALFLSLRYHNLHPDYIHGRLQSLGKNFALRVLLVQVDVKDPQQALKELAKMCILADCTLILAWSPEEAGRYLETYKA
# Experiment: Competitive binding equilibrium titrations, fluorescence anisotropy of 6FAM-labeled single-stranded 40mer DNA
# Protocol: Binding of a 6FAM-labeled single-stranded DNA 40mer to the central domain of ERCC1 was monitored by fluorescence polarization of the labeled DNA. DNA binding activity is plotted as a function of added XPA67-80 inhibitor. The theoretical curve given by Eq. 9 (solid line) corresponds to the best fit of the data to the dissociation equilibrium constant of 300 nM for the ERCC1-XPA complex.
# Competitive binding equilibrium titrations. The equilibrium titrations were performed in a binding buffer containing 20 mM Tris, pH 8.0, 20 mM NaCl, 2 mM betamercaptoethanol. The concentrations of single-stranded 5′ 6-FAM-labeled DNA (5′-CCGGTGGCCAGCGCTCGGCG(T)20; SEQ ID NO:9) and ERCC196-214 were 50 nM and 2.33 μM, respectively, the concentration of the XPA peptide was varied from 0 to 30 μM (FIG. 7). Fluorescence anisotropy measurements were performed as previously reported (Tsodikov et al., 2005). Increasing XPA peptide concentration above 30 μM caused an increase in fluorescence anisotropy and quenching of fluorescence due to nonspecific interactions with the peptide, observed in the presence or absence of ERCC1 (data not shown).
# The simplest binding model used in the data analysis consisted of two competitive equilibria, binding of XPA peptide and of the single-stranded 6FAM-labeled 40-mer DNA to the central domain of ERCC1. This model is consistent with the fact that at sufficiently high XPA concentration, the fluorescence anisotropy signal approaches that of unbound DNA. Therefore the two binding equilibria could be written as:
# where E, D, X represent the ERCC1, DNA and XPA species, respectively. ED and EX represent ERCC1-DNA and ERCC1-XPA complexes, and KDNA and KXPA are the observed equilibrium association constants, defined in terms of the equilibrium concentrations of the species from Eqs. (2a) and (2b) as:
# The approximation made in Equation (4b) is due to the large excess of ERCC1 over DNA at the experimental conditions. It was assumed that each single-stranded 40-mer DNA oligonucleotide contains only one binding site for ERCC1. Because the central domain of ERCC1 occludes 10-15 nucleotides upon binding DNA (1), with a reasonable approximation, a maximum of 2-3 ERCC1 molecules could simultaneously bind to one DNA molecule without significant cooperativity. In this analysis, a value of (KDNA)−1=1.5 μM was used, obtained from the direct titration of ERCC1 at constant concentration (50 nM) of the same DNA oligomer, using the same single site approximation (1). Therefore the value of the equilibrium binding constant for XPA-ERCC1 complex formation, KXPA, should be unaffected by the stoichiometry of ERCC1-DNA binding.
# The system of Eqs. 4a, 4b and 4c yields expressions for [E], [X] and [D], which are then used to determined the fraction of bound DNA species, f, as follows:
# The observed fluorescence anisotropy, r, is then given by
# where r0 and rmax are fluorescent anisotropy values of unbound and fully bound DNA, respectively. […]
# XPA competes with single-stranded DNA for binding to ERCC1. Because XPA binds in the groove on ERCC1 (FIG. 2) that was previously implicated in DNA binding activity (Tsodikov et al., 2005), it was determined whether or not XPA competes with single-stranded DNA for binding to ERCC1. DNA binding activity was measured by monitoring fluorescence anisotropy, using single-stranded 40mer oligonucleotide labeled on the 5′ end with 6-carboxyfluorescein. […]
sequence,measurement,setting,value
KIIDTGGGFILEEE [XPA67-80],affinity for central domain of ERCC1 relative to single stranded DNA,,approximately 3 fold
same,Kd,"best fit of competition titration to Eq. 9, 50 nM DNA, 2.33 μM ERCC196-214, read-out: dissociation equilibrium constant (Kd) of the XPA-ERCC1 complex",300 nM
same,EC50 for binding of XPA67-80,"competition with 6FAM single-stranded 40mer DNA, accurate measurement precluded by quenching",in the micromolar range
same,competition with single-stranded DNA for binding to ERCC1,fluorescence anisotropy / polarization,does compete with DNA for binding to ERCC1; also recorded: competitive inhibitor
same,binding of peptide to DNA,"single-stranded 40mer, fluorescence anisotropy",does not detectably bind to DNA
